Key:
Format in all cases: cell-based
STAT3 = target: T1, STAT3 (Homo sapiens, UniProt P40763); assay: Fluorescent immunoblotting of STAT3 protein in MOLM-16 cells (estimated DC50); conditions: MOLM-16, 4 h
T1 construct: endogenous in cells; host or cells: MOLM-16 (acute leukemia cells)
Protocol: (§1) In vitro cultured cells or xenograft tumors were lysed 1×Cell Lysis Buffer (Cell Signaling Technology, #9803), resolved by SDS-PAGE NuPAGE gel (Thermo Fisher Scientific), and transferred to a PVDF membrane (Bio Rad). For chemiluminescence immunoblotting, membranes were blocked for 1 h using 5% Blotting-Grade Blocker (#1706404, Bio Rad) in 1×Tris-buffered saline with Tween 20 (TBST, Pierce). Antibodies used were: rabbit mAbs for STAT3 (Cell Signaling Technology, #4368, #12640) and p-STAT3 (Y705) (Cell Signaling Technology, #9245, #52075). HRP conjugated goat anti-rabbit IgG (H+L) (#A27036) secondary antibodies was from Thermo Fisher Scientific. GAPDH (Santa Cruz Technology, sc-47724HRP) and actin (Santa Cruz Technology, sc-8432HRP, sc-47778HRP) were loading controls. For fluorescent immunoblotting, membranes were blocked using Odyssey TBS Blocker Buffer (LI-COR). IRDye 680RD and 800CW Dye-labeled secondary antibodies (LI-COR) were used. The washed membranes were scanned using Odyssey CLx imager (LI-COR). The intensity of Western blot signaling was quantitated using the Odyssey software or Image Studio V5.2 (LI-COR).

STAT1 = target: T2, STAT1 (Homo sapiens, UniProt P42224); assay: Fluorescent immunoblotting of STAT1 protein in MOLM-16 cells (estimated DC50); conditions: MOLM-16, 4 h
T2 construct: endogenous in cells; host or cells: MOLM-16 (acute leukemia cells)
T2 sequence (P42224 1-750): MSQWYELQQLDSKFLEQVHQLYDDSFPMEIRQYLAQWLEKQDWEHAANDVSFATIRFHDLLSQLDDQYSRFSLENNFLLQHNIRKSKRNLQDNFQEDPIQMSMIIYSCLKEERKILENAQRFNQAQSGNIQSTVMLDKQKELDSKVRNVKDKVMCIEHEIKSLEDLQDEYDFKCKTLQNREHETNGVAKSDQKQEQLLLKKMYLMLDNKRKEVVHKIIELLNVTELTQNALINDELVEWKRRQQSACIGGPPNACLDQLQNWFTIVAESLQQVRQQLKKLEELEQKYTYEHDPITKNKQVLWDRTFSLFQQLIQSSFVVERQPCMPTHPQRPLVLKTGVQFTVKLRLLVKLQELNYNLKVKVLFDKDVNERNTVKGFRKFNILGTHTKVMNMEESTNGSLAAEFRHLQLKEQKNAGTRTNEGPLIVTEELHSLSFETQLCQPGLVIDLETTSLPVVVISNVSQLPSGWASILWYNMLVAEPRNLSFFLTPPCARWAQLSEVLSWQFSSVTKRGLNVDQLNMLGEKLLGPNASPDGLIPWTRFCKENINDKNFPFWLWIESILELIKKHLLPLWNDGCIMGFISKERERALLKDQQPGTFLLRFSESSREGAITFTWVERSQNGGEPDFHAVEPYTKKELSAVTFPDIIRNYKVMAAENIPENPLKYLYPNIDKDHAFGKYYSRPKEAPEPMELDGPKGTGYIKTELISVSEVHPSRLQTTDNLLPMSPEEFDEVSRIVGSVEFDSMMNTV
Protocol: as §1

MOLM-16 cells = assay: Cell growth inhibition, 4-day proliferation assay (CellTiter-Glo); conditions: MOLM16, 96 h; MOLM-16, 4 days
Protocol: The effect of representative Compounds of the Disclosure on cell viability was determined in a 4-day proliferation assay. Cells were maintained in the appropriate culture medium at 37° C. and an atmosphere of 5% CO2. All the cell lines were used within three months of thawing fresh vials. Cells were seeded in 384-well white plates (Corning Costar) at a density of 2,000 cells/well in 25 μl of culture medium. Compounds were serially diluted in the appropriate medium, and 25 μl of the diluted compounds were added to the cells. After the addition of compounds, the cells were incubated at 37° C. in an atmosphere of 5% CO2 for 4 days. Cell viability was determined using the CellTiter-Glo® Luminescent Cell Viability Assay Kit (Promega, Madison, WI) according to the manufacturers' instructions. Essentially, 50 μl of CellTiter-Glo® Reagent was added to each well, and then the plates were incubated at room temperature for 20 minutes. The luminescent signal was measured using a Tecan multimode microplate reader (Tecan, Morrisville, NC). The readings were normalized to the DMSO-treated cells and the IC50 was calculated by nonlinear regression (four parameters sigmoid fitted with variable slope, least squares fit, and no constraint) analysis using the GraphPad Prism software.

T1 sequence (P40763 whole entry): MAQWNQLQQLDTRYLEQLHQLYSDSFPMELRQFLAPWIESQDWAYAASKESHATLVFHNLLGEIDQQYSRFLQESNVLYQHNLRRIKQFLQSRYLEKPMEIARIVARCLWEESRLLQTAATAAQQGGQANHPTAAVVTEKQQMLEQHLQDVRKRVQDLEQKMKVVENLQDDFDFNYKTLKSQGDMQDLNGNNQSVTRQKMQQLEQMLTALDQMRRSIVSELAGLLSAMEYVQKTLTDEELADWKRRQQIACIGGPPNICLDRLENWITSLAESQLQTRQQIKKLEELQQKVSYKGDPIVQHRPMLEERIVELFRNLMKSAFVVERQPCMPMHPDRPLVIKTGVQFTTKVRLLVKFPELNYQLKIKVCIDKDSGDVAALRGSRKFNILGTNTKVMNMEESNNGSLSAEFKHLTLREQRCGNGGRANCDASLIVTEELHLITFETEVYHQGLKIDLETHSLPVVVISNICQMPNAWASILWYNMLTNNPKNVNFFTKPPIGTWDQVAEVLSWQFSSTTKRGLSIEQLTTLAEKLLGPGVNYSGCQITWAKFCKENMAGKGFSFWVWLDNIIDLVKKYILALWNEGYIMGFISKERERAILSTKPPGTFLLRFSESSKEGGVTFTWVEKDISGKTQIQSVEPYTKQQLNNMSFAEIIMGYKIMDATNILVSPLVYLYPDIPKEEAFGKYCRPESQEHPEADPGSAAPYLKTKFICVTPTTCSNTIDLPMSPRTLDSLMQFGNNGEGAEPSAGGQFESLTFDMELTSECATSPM

Row | Structure (SMILES) | DC50 (STAT3) [nM] | DC50 (STAT1) [nM] | IC50 (MOLM-16 cells) [nM]
1 | CCN1CC[C@H]2CC[C@@H](C(=O)N[C@@H](CCn3ccnc3N)C(=O)N[C@@H](Cc3ccc(C(C)(C)C)cc3)C(=O)N3CCC(CCC#Cc4cccc5c4CN(C4CCC(=O)NC4=O)C5=O)CC3)N2C(=O)[C@@H](NC(=O)c2cc3cc(C(F)(F)P(=O)(O)O)ccc3s2)C1 (stereo partly drawn) [Cpd. No. 22, ((2-(((5S,8S,10aR)-8-(((2S)-4-(2-amino-1H-imidazol-1-yl)-1-(((2S)-3-(4-(tert-butyl)phenyl)-1-(4-(4-(2-(2,6-dioxopiperidin-3-yl)-1-oxoisoindolin-4-yl)but-3-yn-1-yl)piperidin-1-yl)-1-oxopropan-2-yl)amino)-1-oxobutan-2-yl)carbamoyl)-3-ethyl-6-oxodecahydropyrrolo[1,2-a][1,5]diazocin-5-yl)carbamoyl)benzo[b]thiophen-5-yl)difluoromethyl)phosphonic acid] | > 1000 | > 1000 | 
2 | CCN1CC[C@H]2CC[C@@H](C(=O)N[C@@H](CCS(N)(=O)=O)C(=O)N[C@@H](Cc3ccc(C(C)(C)C)cc3)C(=O)N3CCC(CCC#Cc4cccc5c4CN(C4CCC(=O)NC4=O)C5=O)CC3)N2C(=O)[C@@H](NC(=O)c2cc3cc(C(F)(F)P(=O)(O)O)ccc3s2)C1 (stereo partly drawn) [Cpd. No. 20, ((2-(((5S,8S,10aR)-8-(((2S)-1-(((2S)-3-(4-(tert-butyl)phenyl)-1-(4-(4-(2-(2,6-dioxopiperidin-3-yl)-1-oxoisoindolin-4-yl)but-3-yn-1-yl)piperidin-1-yl)-1-oxopropan-2-yl)amino)-1-oxo-4-sulfamoylbutan-2-yl)carbamoyl)-3-ethyl-6-oxodecahydropyrrolo[1,2-a][1,5]diazocin-5-yl)carbamoyl)benzo[b]thiophen-5-yl)difluoromethyl)phosphonic acid] | < 250 | > 1000 | 
3 | CCN1CC[C@H]2CC[C@@H](C(=O)N[C@@H](CCn3ccnc3[N+](=O)[O-])C(=O)N[C@@H](Cc3ccc(C(C)(C)C)cc3)C(=O)N3CCC(CCC#Cc4cccc5c4CN(C4CCC(=O)NC4=O)C5=O)CC3)N2C(=O)[C@@H](NC(=O)c2cc3cc(C(F)(F)P(=O)(O)O)ccc3s2)C1 (stereo partly drawn) [Cpd. No. 21, ((2-(((5S,8S,10aR)-8-(((2S)-1-(((2S)-3-(4-(tert-butyl)phenyl)-1-(4-(4-(2-(2,6-dioxopiperidin-3-yl)-1-oxoisoindolin-4-yl)but-3-yn-1-yl)piperidin-1-yl)-1-oxopropan-2-yl)amino)-4-(2-nitro-1H-imidazol-1-yl)-1-oxobutan-2-yl)carbamoyl)-3-ethyl-6-oxodecahydropyrrolo[1,2-a][1,5]diazocin-5-yl)carbamoyl)benzo[b]thiophen-5-yl)difluoromethyl)phosphonic acid] | > 1000 | > 1000 | 
4 | NC(=O)CC[C@H](NC(=O)[C@@H]1CC[C@@H]2CCN(C(=O)CCCCCC#Cc3cccc4c3CN(C3CCC(=O)NC3=O)C4=O)C[C@H](NC(=O)c3cc4cc(C(F)(F)P(=O)(O)O)ccc4s3)C(=O)N21)c1ncc(-c2ccccc2F)s1 (stereo partly drawn) [Cpd. No. 16, ((2-(((5S,8S,10aR)-8-(((S)-4-amino-1-(5-(2-fluorophenyl)thiazol-2-yl)-4-oxobutyl)carbamoyl)-3-(8-(2-(2,6-dioxopiperidin-3-yl)-1-oxoisoindolin-4-yl)oct-7-ynoyl)-6-oxodecahydropyrrolo[1,2-a][1,5]diazocin-5-yl)carbamoyl)benzo[b]thiophen-5-yl)difluoromethyl)phosphonic acid] | 50 |  | 68
5 | NC(=O)OC[C@H](NC(=O)[C@@H]1CC[C@@H]2CCN(C(=O)CCCCCC#Cc3cccc4c3CN(C3CCC(=O)NC3=O)C4=O)C[C@H](NC(=O)c3cc4cc(C(F)(F)P(=O)(O)O)ccc4s3)C(=O)N21)c1ncc(-c2ccccc2)s1 (stereo partly drawn) [Cpd. No. 8, ((2-(((5S,8S,10aR)-8-(((S)-2-(carbamoyloxy)-1-(5-phenylthiazol-2-yl)ethyl)carbamoyl)-3-(8-(2-(2,6-dioxopiperidin-3-yl)-1-oxoisoindolin-4-yl)oct-7-ynoyl)-6-oxodecahydropyrrolo[1,2-a][1,5]diazocin-5-yl)carbamoyl)benzo[b]thiophen-5-yl)difluoromethyl)phosphonic acid] | 100 |  | 13

Source: patent US12522623B2, “Small molecule STAT protein degraders” (THE REGENTS OF THE UNIVERSITY OF MICHIGAN, priority 2020, dated 2026)
